Legend:
Test in all cases: relative viability vs DMSO control (72 h) (fraction); higher = more viable cells
[1] = tested on: SW872
Summary of the method: (§1)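 Serially diluted compound, 2.5 µl from source plates spanning 10 mM to 0.0002 mM, was added 24 h after sarcoma cell lines were seeded in 384-well plates at densities targeting 80–90% confluence. Plates then sat 72 h at 37 °C, 5% CO2, with 0.1% DMSO vehicle and a 5 µM positive control. Relative viability came from ATPLite as percent growth, averaged over up to triplicate wells, and was rescaled with 1 as full and 0 as none.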

[2] = tested on: VA-ES-BJ
Summary of the method: as §1

[3] = tested on: G401
Summary of the method: as §1

[4] = tested on: KHOS-NP
Summary of the method: as §1

[5] = tested on: SK-LMS-1
Summary of the method: as §1

[6] = tested on: SW684
Summary of the method: as §1

[7] = tested on: SW982
Summary of the method: as §1

[8] = tested on: RD-ES
Summary of the method: as §1

[9] = tested on: A204
Summary of the method: as §1

[10] = tested on: SK-ES-1
Summary of the method: as §1

[11] = tested on: HS729
Summary of the method: as §1

[12] = tested on: HT1080
Summary of the method: as §1

Cn1ncnc1[C@H]1c2n[nH]c(=O)c3cc(F)cc(c23)N[C@@H]1c1ccc(F)cc1 [Talazoparib]
Conditions	relative viability
[1], 0.00017 µM	1.02
[1], 0.00051 µM	1.04
[1], 0.00152 µM	1.04
[1], 0.00457 µM	1.01
[1], 0.01372 µM	0.99
[1], 0.04115 µM	0.971
[1], 0.1235 µM	0.905
[1], 0.3704 µM	0.799
[1], 1.111 µM	0.628
[1], 3.333 µM	0.441
[1], 10 µM	0.34
[2], 0.00017 µM	1.01
[2], 0.00051 µM	1.01
[2], 0.00152 µM	1.01
[2], 0.00457 µM	0.955
[2], 0.01372 µM	0.926
[2], 0.04115 µM	0.849
[2], 0.1235 µM	0.738
[2], 0.3704 µM	0.601
[2], 1.111 µM	0.406
[2], 3.333 µM	0.225
[2], 10 µM	0.163
[3], 0.00017 µM	0.95
[3], 0.00051 µM	1.02
[3], 0.00152 µM	0.935
[3], 0.00457 µM	0.937
[3], 0.01372 µM	0.881
[3], 0.04115 µM	0.813
[3], 0.1235 µM	0.764
[3], 0.3704 µM	0.716
[3], 1.111 µM	0.663
[3], 3.333 µM	0.613
[3], 10 µM	0.555
[4], 0.00017 µM	1.02
[4], 0.00051 µM	1.04
[4], 0.00152 µM	1.03
[4], 0.00457 µM	1.04
[4], 0.01372 µM	1.02
[4], 0.04115 µM	1.01
[4], 0.1235 µM	1
[4], 0.3704 µM	0.968
[4], 1.111 µM	0.837
[4], 3.333 µM	0.675
[4], 10 µM	0.607
[5], 0.00017 µM	1.01
[5], 0.00051 µM	1.05
[5], 0.00152 µM	0.999
[5], 0.00457 µM	0.999
[5], 0.01372 µM	0.982
[5], 0.04115 µM	0.956
[5], 0.1235 µM	0.9584
[5], 0.3704 µM	0.874
[5], 1.111 µM	0.833
[5], 3.333 µM	0.795
[5], 10 µM	0.778
[6], 0.00017 µM	0.965
[6], 0.00051 µM	1.01
[6], 0.00152 µM	0.988
[6], 0.00457 µM	1.05
[6], 0.01372 µM	0.986
[6], 0.04115 µM	0.969
[6], 0.1235 µM	0.963
[6], 0.3704 µM	0.932
[6], 1.111 µM	0.893
[6], 3.333 µM	0.875
[6], 10 µM	0.865
[7], 0.00017 µM	0.911
[7], 0.00051 µM	0.906
[7], 0.00152 µM	0.904
[7], 0.00457 µM	0.862
[7], 0.01372 µM	0.785
[7], 0.04115 µM	0.729
[7], 0.1235 µM	0.615
[7], 0.3704 µM	0.602
[7], 1.111 µM	0.499
[7], 3.333 µM	0.409
[7], 10 µM	0.361
[8], 0.00017 µM	0.976
[8], 0.00051 µM	0.95
[8], 0.00152 µM	0.904
[8], 0.00457 µM	0.844
[8], 0.01372 µM	0.609
[8], 0.04115 µM	0.191
[8], 0.1235 µM	0.0431
[8], 0.3704 µM	0.0199
[8], 1.111 µM	0.0127
[8], 3.333 µM	0.00913
[8], 10 µM	0.0143
[9], 0.00017 µM	0.9664
[9], 0.00051 µM	0.987
[9], 0.00152 µM	0.963
[9], 0.00457 µM	0.932
[9], 0.01372 µM	0.906
[9], 0.04115 µM	0.846
[9], 0.1235 µM	0.715
[9], 0.3704 µM	0.674
[9], 1.111 µM	0.576
[9], 3.333 µM	0.519
[9], 10 µM	0.399
[10], 0.00017 µM	0.961
[10], 0.00051 µM	0.9
[10], 0.00152 µM	0.825
[10], 0.00457 µM	0.614
[10], 0.01372 µM	0.33
[10], 0.04115 µM	0.173
[10], 0.1235 µM	0.109
[10], 0.3704 µM	0.0754
[10], 1.111 µM	0.0494
[10], 3.333 µM	0.0309
[10], 10 µM	0.0277
[11], 0.00017 µM	1.05
[11], 0.00051 µM	1.05
[11], 0.00152 µM	1.03
[11], 0.00457 µM	1.02
[11], 0.01372 µM	1.02
[11], 0.04115 µM	1.03
[11], 0.1235 µM	0.961
[11], 0.3704 µM	0.949
[11], 1.111 µM	0.895
[11], 3.333 µM	0.8536
[11], 10 µM	0.812
[12], 0.00017 µM	1.06
[12], 0.00051 µM	1.05
[12], 0.00152 µM	1.05
[12], 0.00457 µM	1.037
[12], 0.01372 µM	1
[12], 0.04115 µM	0.955
[12], 0.1235 µM	0.8497
[12], 0.3704 µM	0.797
[12], 1.111 µM	0.662
[12], 3.333 µM	0.577
[12], 10 µM	0.554
